The values below come from ChEMBL document CHEMBL1148633, “Inhibition of carbonic anhydrase-II by sulfamate and sulfamide groups: an investigation involving direct thermodynamic binding measurements” (J Med Chem, 2006).

The target of experiment [1] is T1, Carbonic anhydrase 2 (Homo sapiens, UniProt P00918). Nature of the experiment: Inhibition of human CA2 by 4-nitrophenyl acetate hydrolysis.
Experiment [2] has as its target T1, Carbonic anhydrase 2. Description: Binding affinity to human CA2 in presence of sodium sulfate and ANS at pH 7.5 by ThermoFluor assay. For orientation: DSF heats the sample and reads unfolding from a dye or from intrinsic fluorescence.
Experiment [3] has as its target T1, Carbonic anhydrase 2. Description: Binding affinity to human CA2 at pH 7.4 by ThermoFluor assay.
Experiment [4] addresses T1, Carbonic anhydrase 2.
Description: Inhibition of human CA2 by carbon dioxide hydration

pKd, pKi: −log10 of the molar value.

Consider `NS(=O)(=O)Nc1ccc([N+](=O)[O-])cc1`, for which the values for the negative logarithm of the Ki (pKi) on Carbonic anhydrase 2 [1] and on Carbonic anhydrase 2 [4] were 5.76 and 6.05, respectively. Moreover, the pKd – broadly, −log10 of the Kd, conventionally taken in molar units – was 6.00 at Carbonic anhydrase 2 [2] and 5.82 at Carbonic anhydrase 2 [3].

As for `COc1ccc(NS(N)(=O)=O)cc1`, the pKi – broadly, the negative decadic logarithm of the Ki, by convention in mol/L – on Carbonic anhydrase 2 [1] is 4.73; on Carbonic anhydrase 2 [4], 4.84. Further, the pKd at Carbonic anhydrase 2 [2] was 5.58; at Carbonic anhydrase 2 [3] it was 5.30.
